What is called EC50 is the concentration needed to bring the measured effect to its halfway point. Usually IC50 stands for the midpoint of a concentration-inhibition curve. A word on the AC50: it is the concentration giving half of the maximal activity seen. Usually Ki stands for a measure of affinity in units of concentration, obtained from inhibition or displacement.

The source made the active and inactive calls. Where only a bound is given, the exact number is not on record here.

The target in assay [1] is T1, Mu-type opioid receptor (Homo sapiens, UniProt P35372). Put plainly: mu opioid receptor activators, image-based, SAR follow-up (AID 2352). It counts as functional.
Assay [2] addresses T2, Kappa-type opioid receptor (Homo sapiens, UniProt P41145). It counts as functional.
For assay [3], the target named is T3, Delta-type opioid receptor (Homo sapiens, UniProt P41143). The experiment in a line: DOR agonists, SAR follow-up, image-based (AID 2370). It counts as functional.
Assay [4] concerns the target T1, Mu-type opioid receptor. Put plainly: mu opioid receptor blockers – image-based, SAR follow-up (AID 2420).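 Further: compounds added before stimulation of receptor with agonist DAMGO.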 It counts as functional.
Assay [5] concerns the target T2, Kappa-type opioid receptor. The experiment in a line: kappa opioid receptor blockers, image-based, SAR follow-up (AID 2348). It counts as functional.
In assay [6] the target is T2, Kappa-type opioid receptor. It counts as functional. This is another data set of the same source.
Assay [7] deals with T3, Delta-type opioid receptor. The experiment in a line: delta opioid receptor blockers – image-based, SAR follow-up (AID 2357). It counts as functional.
Assay [8] can be described thus: reduction of Shn3 3'UTR-driven luciferase in osteoblasts – cell-based, Clone20 osteoblasts, firefly luciferase, cherry-picked, dose response (AID 624132).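 Further: firefly luciferase luminescence from reporter carrying the Shn3 3'UTR in osteoblasts.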 It counts as functional.
The nature of assay [9]: luciferase reporter signal reduction – luminescence, H4-C neuroglioblastoma cells, dose response (AID 2458).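 Further: H4 neuroglioblastoma cells stably carrying a luciferase reporter gene fusion.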 It counts as functional, cell-based.
The nature of assay [10]: alpha-synuclein stem-loop luciferase translation blockers – H4 neuroglioma cells, luminescence, confirmation (AID 1988). It counts as functional, cell-based.
Assay [11] deals with Scavenger receptor class B member 1 (Mus musculus, UniProt Q61009). Put plainly: mouse SR-BI DiI-HDL uptake blockers – ldlA[mSR-BI] cells, fluorescence, cherry pick, dose response (AID 493194).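 Further: cellular uptake of fluorescent DiI-labeled HDL measured as cell fluorescence.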 It counts as functional, cell-based.
A further assay in a line: cells. It counts as functional, cell-based.
A short description of assay [12]: Luminescence-based dose response cell-based high throughput screening assay for cytotoxic compounds using the IEC-6 intestinal epithelial cell line. [Related pubchem assays: 1858 (Summary AID.), 1825 (Counterscreen.), 1907 (Confirmation screen.)]. It counts as functional.
Assay [13] in a line: Luminescence Cell-Based Dose Response HTS to Identify Inhibitors of 5'UTR Stem-Loop Driven Prion Protein mRNA Translation in H4 Neuroglioblastoma Cells. [Related pubchem assays: 1827 (Project Summary), 1813 (Primary HTS)]. It counts as functional.
Assay [14] is described as follows: non-specific 3'UTR reporter inhibition in Clone20-Shn3RL – cell-based, Renilla luciferase, cherry-picked, counter-screen for Shn3 inhibitor project, dose response (AID 624133). It counts as functional. (In general: Counterscreens check selectivity or assay interference.)
Assay [15] in a line: alpha-synuclein stem-loop translation blockers – luminescence, H4 neuroglioblastoma cells, dose confirmation, confirmation (AID 2454).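 Further: H4 neuroglioblastoma cells carrying an alpha-synuclein 5'UTR luciferase reporter; potency for inhibition of the luciferase signal.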 It counts as functional, cell-based.
Assay [16] can be described thus: HEK-293T viability loss after treatment – luminescence, T-cell screen hits, cytotoxicity control for TCR NF-kB inhibitor project, dose response (AID 489026).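 Further: cells exposed to compound about 14 hours before the viability readout.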 It counts as functional, cell-based.
The target in assay [17] is Dual specificity protein phosphatase 3 (Homo sapiens, UniProt P51452). Put plainly: inhibition constants for human DUSP3 – biochemical, colorimetric, SAR follow-up (AID 2004).
The target in a further assay is T4, ORF 73 (Human herpesvirus 8, UniProt O40947).
T4 sequence (O40947 whole entry): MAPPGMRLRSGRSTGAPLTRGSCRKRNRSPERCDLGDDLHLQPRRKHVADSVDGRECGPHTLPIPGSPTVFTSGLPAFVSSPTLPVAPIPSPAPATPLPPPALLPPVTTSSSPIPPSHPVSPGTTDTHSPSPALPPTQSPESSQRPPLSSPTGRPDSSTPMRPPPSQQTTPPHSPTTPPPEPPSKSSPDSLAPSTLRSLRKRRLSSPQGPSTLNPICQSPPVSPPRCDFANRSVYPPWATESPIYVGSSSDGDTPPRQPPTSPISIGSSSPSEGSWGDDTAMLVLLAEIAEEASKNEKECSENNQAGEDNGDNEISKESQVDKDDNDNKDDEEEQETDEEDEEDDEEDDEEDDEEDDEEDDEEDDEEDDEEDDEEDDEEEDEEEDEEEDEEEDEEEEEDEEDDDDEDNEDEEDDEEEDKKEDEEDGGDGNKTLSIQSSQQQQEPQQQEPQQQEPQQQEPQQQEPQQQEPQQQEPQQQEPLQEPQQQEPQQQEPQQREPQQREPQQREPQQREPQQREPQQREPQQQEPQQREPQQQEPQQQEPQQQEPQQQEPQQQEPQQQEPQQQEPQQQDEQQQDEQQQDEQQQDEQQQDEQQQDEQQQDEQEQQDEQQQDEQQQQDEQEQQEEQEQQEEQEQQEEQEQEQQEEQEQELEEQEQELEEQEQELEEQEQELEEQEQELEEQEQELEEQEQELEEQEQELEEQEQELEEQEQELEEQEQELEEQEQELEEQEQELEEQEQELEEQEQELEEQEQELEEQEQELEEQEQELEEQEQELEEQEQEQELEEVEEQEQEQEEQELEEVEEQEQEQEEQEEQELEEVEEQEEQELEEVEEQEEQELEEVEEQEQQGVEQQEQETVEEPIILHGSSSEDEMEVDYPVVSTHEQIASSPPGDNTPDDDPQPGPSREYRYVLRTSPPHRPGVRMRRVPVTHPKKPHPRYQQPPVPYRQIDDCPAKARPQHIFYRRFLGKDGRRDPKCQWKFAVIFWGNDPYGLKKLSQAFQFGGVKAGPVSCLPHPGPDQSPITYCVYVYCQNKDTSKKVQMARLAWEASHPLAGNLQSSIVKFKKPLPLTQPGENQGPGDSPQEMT
Put plainly: KSHV LANA DNA-binding disruption – biochemical, fluorescence polarization, cherry-picked samples, dose response (AID 504725).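 Further: fluorescence polarization of a labeled DNA duplex reporting LANA DNA binding; potency is for inhibitors that block LANA binding to the DNA.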 The arrangement: species or system Human gammaherpesvirus 8. A general note: Polarisation of emitted light reports the rotation of a fluorescent probe.

The next assay addresses T5, Caspase-6 (Homo sapiens, UniProt P55212).
T5 sequence (P55212 whole entry): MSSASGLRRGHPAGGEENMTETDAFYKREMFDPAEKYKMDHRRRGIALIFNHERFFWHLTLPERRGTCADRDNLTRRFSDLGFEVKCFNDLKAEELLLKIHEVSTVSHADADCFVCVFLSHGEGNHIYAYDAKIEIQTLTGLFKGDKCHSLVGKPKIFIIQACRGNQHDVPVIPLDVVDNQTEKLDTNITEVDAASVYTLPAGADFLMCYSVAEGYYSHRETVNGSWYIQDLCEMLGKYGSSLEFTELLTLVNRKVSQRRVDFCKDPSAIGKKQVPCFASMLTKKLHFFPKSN
Put plainly: inhibition of CASP6 peptide cleavage – biochemical, VEID-R110 fluorescence, cherry-pick, dose response (AID 720632).

In a further assay the test system is HeLa. Put plainly: viability loss in HeLa cells – cell-based, 24 h, cherry-picked samples, cytotoxicity control, dose response (AID 504726). The following applies: Homo sapiens. It counts as functional.
The test system of another assay is CHO. Put plainly: CHO cell viability loss, potency – luminescence, cytotoxicity control for TLR9-MyD88 binding inhibitor project, dose response (AID 588339).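 Further: CHO cells stably coexpressing TLR9 and MyD88 fusions from primary screen; compound exposure lasted 48 hours before viability readout.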 The settings on record: Cricetulus griseus. It counts as functional, cell-based, hamster.
Assay [18] deals with G-protein coupled receptor 35 (Homo sapiens, UniProt Q9HC97). The experiment in a line: inhibition of zaprinast-stimulated GPR35 beta-arrestin translocation – imaging, U2OS, beta-arrestin-GFP, zaprinast agonist, primary screen (AID 2058).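 Further: antagonist potency meaning inhibition of agonist-induced arrestin redistribution.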 It counts as functional.
The target in assay [19] is T6, Replicative DNA helicase DnaB (Mycobacterium tuberculosis, UniProt P9WMR3).
T6 sequence (P9WMR3 whole entry): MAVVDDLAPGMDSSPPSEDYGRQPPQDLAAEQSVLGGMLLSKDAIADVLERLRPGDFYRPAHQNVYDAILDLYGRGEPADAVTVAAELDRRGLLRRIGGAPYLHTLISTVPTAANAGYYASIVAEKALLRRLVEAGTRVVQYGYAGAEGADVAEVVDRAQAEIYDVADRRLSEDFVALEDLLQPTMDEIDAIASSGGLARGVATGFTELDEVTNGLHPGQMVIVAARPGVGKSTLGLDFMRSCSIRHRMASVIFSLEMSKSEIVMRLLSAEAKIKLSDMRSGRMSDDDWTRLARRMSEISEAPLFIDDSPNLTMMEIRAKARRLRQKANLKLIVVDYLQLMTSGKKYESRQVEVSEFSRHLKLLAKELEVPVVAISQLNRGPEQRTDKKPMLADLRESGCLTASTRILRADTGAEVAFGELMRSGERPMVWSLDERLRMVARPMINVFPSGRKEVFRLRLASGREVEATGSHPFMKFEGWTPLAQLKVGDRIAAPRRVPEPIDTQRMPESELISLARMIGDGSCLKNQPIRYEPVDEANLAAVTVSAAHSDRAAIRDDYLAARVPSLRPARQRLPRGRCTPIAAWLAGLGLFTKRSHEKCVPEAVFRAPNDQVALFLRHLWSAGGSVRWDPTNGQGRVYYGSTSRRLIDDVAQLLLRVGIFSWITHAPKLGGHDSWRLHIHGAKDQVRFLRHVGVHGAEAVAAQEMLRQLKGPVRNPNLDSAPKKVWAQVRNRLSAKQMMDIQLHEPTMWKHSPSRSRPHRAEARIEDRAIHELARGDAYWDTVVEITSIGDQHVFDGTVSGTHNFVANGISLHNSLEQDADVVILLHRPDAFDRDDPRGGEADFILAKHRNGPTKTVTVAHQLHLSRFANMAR
The experiment in a line: DnaB intein splicing inhibitors, dose response, biochemical, cell-free fluorescence (AID 449749). It counts as functional.

A further assay deals with T7, Protein RecA (Mycobacterium tuberculosis, UniProt P9WHJ3).
T7 sequence (P9WHJ3 whole entry): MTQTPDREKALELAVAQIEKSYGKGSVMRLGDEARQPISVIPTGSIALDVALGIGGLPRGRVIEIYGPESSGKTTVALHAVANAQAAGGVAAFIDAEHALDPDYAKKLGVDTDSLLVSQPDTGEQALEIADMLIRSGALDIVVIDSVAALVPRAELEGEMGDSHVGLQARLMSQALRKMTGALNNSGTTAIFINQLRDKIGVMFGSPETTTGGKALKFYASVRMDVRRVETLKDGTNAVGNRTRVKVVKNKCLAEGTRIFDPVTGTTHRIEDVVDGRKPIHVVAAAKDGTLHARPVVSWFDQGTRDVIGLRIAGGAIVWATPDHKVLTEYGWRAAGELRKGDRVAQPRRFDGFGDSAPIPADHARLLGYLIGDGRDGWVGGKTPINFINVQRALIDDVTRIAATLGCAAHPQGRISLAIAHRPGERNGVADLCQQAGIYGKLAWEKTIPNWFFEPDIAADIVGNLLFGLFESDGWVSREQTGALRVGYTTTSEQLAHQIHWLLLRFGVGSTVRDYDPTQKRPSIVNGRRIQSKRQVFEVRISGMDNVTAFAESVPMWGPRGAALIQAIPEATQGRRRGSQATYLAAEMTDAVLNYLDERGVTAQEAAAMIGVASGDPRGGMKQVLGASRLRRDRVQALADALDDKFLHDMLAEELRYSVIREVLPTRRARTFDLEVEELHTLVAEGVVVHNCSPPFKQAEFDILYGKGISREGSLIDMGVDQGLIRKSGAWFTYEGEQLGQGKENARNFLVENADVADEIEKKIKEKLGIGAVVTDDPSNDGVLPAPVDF
The experiment in a line: Fluorescence Cell-Free Homogeneous Dose Retest to Identify Inhibitors of RecA-Intein Splicing Activity. [Related pubchem assays (depositor defined):AID2097, AID2223, AID489010, AID492950]. It counts as functional.

For another assay, the target named is Large T antigen (Simian virus 40, UniProt P03070). Put plainly: A confirmatory biochemical assay using the ADP-Hunter methodology, purified TAg, and ATP to quantify activity of synthesized compounds that inhibit the ATPase activity of Tag (3). [Related pubchem assays (depositor defined):AID1903, AID1909, AID2102, AID2501, AID2615, AID2775, AID435001, AID449729]. On the set-up: species or system Betapolyomavirus macacae.

Assay [20] in a line: protection from phage-mediated lysis, alamar blue read-out – E. coli UTI89, K1F phage, bacterial capsule biogenesis inhibitors (AID 488966). It counts as functional.

T2 sequence (P41145 whole entry): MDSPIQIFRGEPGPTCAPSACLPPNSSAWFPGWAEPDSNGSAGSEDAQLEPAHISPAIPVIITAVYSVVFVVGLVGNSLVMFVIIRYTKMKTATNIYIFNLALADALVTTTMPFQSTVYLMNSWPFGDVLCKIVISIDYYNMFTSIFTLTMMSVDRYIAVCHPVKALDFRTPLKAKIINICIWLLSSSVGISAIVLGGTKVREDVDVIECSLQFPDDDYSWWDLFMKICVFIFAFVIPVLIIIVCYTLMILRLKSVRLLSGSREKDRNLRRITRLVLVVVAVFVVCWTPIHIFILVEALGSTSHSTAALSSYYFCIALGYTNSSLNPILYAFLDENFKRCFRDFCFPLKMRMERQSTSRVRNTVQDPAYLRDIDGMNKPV
T3 sequence (P41143 whole entry): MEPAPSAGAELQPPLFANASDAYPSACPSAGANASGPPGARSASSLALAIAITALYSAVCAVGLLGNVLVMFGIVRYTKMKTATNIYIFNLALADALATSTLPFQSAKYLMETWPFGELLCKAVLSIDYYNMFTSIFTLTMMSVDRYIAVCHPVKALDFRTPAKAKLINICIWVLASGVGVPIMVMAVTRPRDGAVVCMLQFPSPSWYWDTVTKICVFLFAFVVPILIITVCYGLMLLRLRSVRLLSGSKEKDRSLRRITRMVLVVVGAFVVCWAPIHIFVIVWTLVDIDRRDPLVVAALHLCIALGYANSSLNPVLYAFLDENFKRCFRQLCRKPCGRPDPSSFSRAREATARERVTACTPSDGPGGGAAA
T1 sequence (P35372 whole entry): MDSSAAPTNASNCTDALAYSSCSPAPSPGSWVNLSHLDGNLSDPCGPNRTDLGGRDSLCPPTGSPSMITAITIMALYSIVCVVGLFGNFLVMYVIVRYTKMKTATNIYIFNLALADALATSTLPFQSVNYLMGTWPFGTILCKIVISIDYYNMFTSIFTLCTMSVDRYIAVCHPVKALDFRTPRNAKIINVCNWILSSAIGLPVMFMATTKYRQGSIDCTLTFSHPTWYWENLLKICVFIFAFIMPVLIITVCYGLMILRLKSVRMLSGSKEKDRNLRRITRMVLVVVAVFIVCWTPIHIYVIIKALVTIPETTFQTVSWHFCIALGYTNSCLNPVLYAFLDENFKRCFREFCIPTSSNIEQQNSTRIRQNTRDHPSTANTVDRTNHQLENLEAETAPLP
Scavenger receptor class B member 1, sequence (Q61009 whole entry): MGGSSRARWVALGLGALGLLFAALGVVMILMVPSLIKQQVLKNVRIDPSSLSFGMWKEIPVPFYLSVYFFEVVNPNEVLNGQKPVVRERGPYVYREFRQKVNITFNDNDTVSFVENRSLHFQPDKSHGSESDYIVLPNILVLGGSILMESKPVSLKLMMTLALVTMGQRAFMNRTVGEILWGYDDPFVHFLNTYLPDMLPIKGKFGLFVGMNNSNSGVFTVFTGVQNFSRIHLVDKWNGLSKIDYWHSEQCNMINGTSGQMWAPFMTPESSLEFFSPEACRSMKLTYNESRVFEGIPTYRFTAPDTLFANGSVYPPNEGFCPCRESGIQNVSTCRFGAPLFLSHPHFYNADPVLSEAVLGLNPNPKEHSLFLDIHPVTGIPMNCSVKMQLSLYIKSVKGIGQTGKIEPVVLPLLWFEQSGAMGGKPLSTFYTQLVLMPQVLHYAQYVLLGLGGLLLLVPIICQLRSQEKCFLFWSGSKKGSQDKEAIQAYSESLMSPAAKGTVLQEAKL
G-protein coupled receptor 35, sequence (Q9HC97 whole entry): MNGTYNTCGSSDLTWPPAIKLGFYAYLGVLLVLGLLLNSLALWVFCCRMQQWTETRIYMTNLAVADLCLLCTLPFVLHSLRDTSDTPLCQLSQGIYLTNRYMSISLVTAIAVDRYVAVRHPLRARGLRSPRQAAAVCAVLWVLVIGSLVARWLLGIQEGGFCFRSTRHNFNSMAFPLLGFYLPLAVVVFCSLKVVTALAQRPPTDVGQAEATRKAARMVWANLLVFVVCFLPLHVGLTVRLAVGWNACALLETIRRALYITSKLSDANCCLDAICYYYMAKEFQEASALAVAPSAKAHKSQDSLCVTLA
Dual specificity protein phosphatase 3, sequence (P51452 whole entry): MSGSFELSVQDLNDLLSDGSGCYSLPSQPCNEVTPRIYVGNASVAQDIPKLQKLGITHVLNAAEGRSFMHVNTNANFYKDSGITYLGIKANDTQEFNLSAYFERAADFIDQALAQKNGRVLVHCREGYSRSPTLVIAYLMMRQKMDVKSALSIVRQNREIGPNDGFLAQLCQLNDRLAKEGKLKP
Large T antigen, sequence (P03070 whole entry): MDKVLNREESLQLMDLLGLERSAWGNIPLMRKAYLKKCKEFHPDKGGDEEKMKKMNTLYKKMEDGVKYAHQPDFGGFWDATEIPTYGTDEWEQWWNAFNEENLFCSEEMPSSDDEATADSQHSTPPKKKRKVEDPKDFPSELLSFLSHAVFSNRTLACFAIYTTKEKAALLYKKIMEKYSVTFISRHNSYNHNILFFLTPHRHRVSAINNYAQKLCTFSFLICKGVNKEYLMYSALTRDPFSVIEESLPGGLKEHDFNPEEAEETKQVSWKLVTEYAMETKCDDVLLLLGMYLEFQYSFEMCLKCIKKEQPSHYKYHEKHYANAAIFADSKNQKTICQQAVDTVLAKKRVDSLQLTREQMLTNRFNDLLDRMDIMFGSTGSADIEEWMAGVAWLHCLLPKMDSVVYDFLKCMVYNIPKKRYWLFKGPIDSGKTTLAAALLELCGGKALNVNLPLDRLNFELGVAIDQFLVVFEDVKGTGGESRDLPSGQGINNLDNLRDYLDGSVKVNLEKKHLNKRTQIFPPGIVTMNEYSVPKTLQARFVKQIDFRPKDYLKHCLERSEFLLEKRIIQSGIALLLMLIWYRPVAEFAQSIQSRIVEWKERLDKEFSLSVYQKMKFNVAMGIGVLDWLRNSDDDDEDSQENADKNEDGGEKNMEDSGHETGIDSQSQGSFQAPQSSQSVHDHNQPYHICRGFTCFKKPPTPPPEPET

In the case of `CC(C)(C)c1ccc(CSc2nnc(-c3ccccn3)n2Cc2ccco2)cc1`, the EC50 at Mu-type opioid receptor [1] is > 32 µM (inactive); in assay [2] it was 2.18 µM; in assay [3], > 32 µM (inactive); in assay [6] it was 1.02 µM. The IC50 (at Mu-type opioid receptor [4]; in [5]; in assay [7]) was > 32 µM (inactive) throughout.

For the compound `CCCCCOC(=O)c1[nH]c2c(c1C)C(=O)CC(c1ccco1)C2` (configuration not stated), the concentration at half-maximal activity (AC50) was 1.49 µM (active) in assay [8], 33.3 µM (active) in assay [11] and 3.96 µM (active) in [14]. For the same compound, the EC50 is 0.198 µM (active) in assay [9]; < 0.1 µM (active) in [10]; 0.179 µM (active) in “cells”; 9.81 µM (active) in assay [13]; 0.133 µM (active) in assay [15]. The half-inhibitory concentration (IC50) was 0.101 µM (active) in assay [12] and > 80 µM (inactive) in assay [16].

On to `CN1C(=O)C(=Cc2ccc(N3CCCC3)c([N+](=O)[O-])c2)C(=O)N(C)C1=O`, for which, in [17], the Ki was 24.5 µM (inactive).

For `Cc1ccc(C(=O)O)cc1N1C(=O)c2cccc3c([N+](=O)[O-])ccc(c23)C1=O`, the AC50 at ORF 73 was 35 µM (active); at Caspase-6 it was 10.3 µM (active); in the assay with HeLa it was 67.1 µM (active). Further, the IC50 with CHO is 22.4 µM (inactive).

As to `CC1(CC(=O)N/N=C/c2ccc(OCc3ccc(Cl)cc3Cl)cc2)OCCCO1`, the IC50 in [18] was < 0.5 µM (active). Further, the half-maximal activity concentration (AC50) in assay [19] is 3.09 µM (active). Further, the EC50 on Protein RecA is 11.1 µM (active).

As for `Oc1ccc(Oc2ccc(O)cc2)cc1`, the IC50 on Large T antigen was 37.7 µM (active).

For the compound `CC/C(=C(/c1ccccc1)c1ccc(OCC[N+](C)(C)C)cc1)c1ccccc1`, the half-inhibitory concentration (IC50) in assay [20] is > 150 µM (active).

These data come from ChEMBL document CHEMBL1201862, “PubChem BioAssay data set” (2004).
